Results reported in PMC8850458, “The AUTOTAC chemical biology platform for targeted protein degradation via the autophagy-lysosome system” (Nature Communications, 2022).
Values joined by “and” are separate entries in the source; they are usually repeats but may differ in a detail not shown here. Identical values can stand only once.

Assays:
VCaP cells = test system: VCaP cells; parameters: method as in printed; conditions: reviewer comment, ref not given; cited from earlier work
mutant p62^D129A = target: T1, mutant p62^D129A (Homo sapiens, UniProt Q13501, D129A); experiment: Pulldown assay with biotinylated YOK-2204, wild-type or D129A p62-myc; format: binding; conditions: HEK293T
T1 construct: expressed in transfected cells; host or cells: HEK293T, transient; cell extract used
Protocol: (§1) A set of synthetic 12-mer peptides corresponding to the N-terminal sequences of the V-BiP (V[19]-[…]-biotin) and V-RGS4 (V^2-[…]-biotin) was C-terminally biotin-conjugated. Alternatively, biotinylated versions of YOK-1304, YT-8-8, YTK-1105, YOK-2204, and PBA were synthesized. To cross-link the above peptides with resin beads, biotin-conjugated peptides, and small molecule were mixed with high-capacity streptavidin agarose resin (Thermo Fisher Scientific) at a ratio of 0.5 mg of peptide per 1 mL of settled resin and incubated on a rotator at 4 °C overnight. After washing five times with PBS, the peptide/small molecule-bead conjugates were diluted with PBS at a 1:1 ratio. To prepare protein extracts, cells were collected by centrifugation and lysed by freezing and thawing at least 10 times in hypotonic buffer [10 mM KCl, 1.5 mM MgCl2, and 10 mM HEPES (pH 7.9)] with a protease inhibitor mix (Sigma). After centrifugation at 15,000 rpm 4 °C for 15 min, proteins were quantified using a BCA protein assay kit (Thermo Fisher Scientific). Total protein (200 μg) diluted in 300 μL of binding buffer [0.05% Tween-20, 10% glycerol, 0.2 M KCl, and 20 mM HEPES (pH 7.9)] were mixed with 50 μL of peptide/small molecule-bead resin and incubated at 4 °C for 2 h on a rotator. The protein-bound beads were collected by centrifugation at 2400 × g for 3 min and washed five times with binding buffer. […]

[1] = WST-based cell viability assay in LNCaP cells; conditions: human, LNCaP cells
LNCaP cells = experiment: WST-based cell viability assay in LNCaP cells; conditions: LNcaP, duplicates
p62 = target: T2, p62 (Homo sapiens, UniProt Q13501); experiment: In vitro pulldown assay with biotinylated p62 ligands; format: binding; conditions: biotinylated ligand, HEK293T extracts
T2 construct: expressed in transfected cells; host or cells: HEK293T, transient; whole lysate used
Protocol: A set of synthetic 12-mer peptides corresponding to the N-terminal sequences of the V-BiP (V[19]-[…]-biotin) and V-RGS4 (V^2-[…]-biotin) was C-terminally biotin-conjugated. Alternatively, biotinylated versions of YOK-1304, YT-8-8, YTK-1105, YOK-2204, and PBA were synthesized. To cross-link the above peptides with resin beads, biotin-conjugated peptides, and small molecule were mixed with high-capacity streptavidin agarose resin (Thermo Fisher Scientific) at a ratio of 0.5 mg of peptide per 1 mL of settled resin and incubated on a rotator at 4 °C overnight. After washing five times with PBS, the peptide/small molecule-bead conjugates were diluted with PBS at a 1:1 ratio. To prepare protein extracts, cells were collected by centrifugation and lysed by freezing and thawing at least 10 times in hypotonic buffer [10 mM KCl, 1.5 mM MgCl2, and 10 mM HEPES (pH 7.9)] with a protease inhibitor mix (Sigma). After centrifugation at 15,000 rpm 4 °C for 15 min, proteins were quantified using a BCA protein assay kit (Thermo Fisher Scientific). Total protein (200 μg) diluted in 300 μL of binding buffer [0.05% Tween-20, 10% glycerol, 0.2 M KCl, and 20 mM HEPES (pH 7.9)] were mixed with 50 μL of peptide/small molecule-bead resin and incubated at 4 °C for 2 h on a rotator. The protein-bound beads were collected by centrifugation at 2400 × g for 3 min and washed five times with binding buffer. The beads were resuspended in 25 μL of SDS sample buffer, heated at 95 °C for 5 min, and subjected to SDS/PAGE and immunoblotting.

[2] = test system: p62 and LC3 punctate structures; experiment: ICC of p62 and LC3 puncta formation and co-localization in HeLa cells; format: cell-based; conditions: 2.5 μM, 24 h
Protocol: (§2) Cells were cultured on coverslips coated with poly-L-lysine (Sigma) to observe cellular localization of proteins. Using 4% paraformaldehyde in PBS (pH 7.4), the cells were fixed for 15 min at room temperature and washed three times for 5 min with PBS. After fixing, the cells were permeabilized with 0.5% Triton X-100 in PBS solution for 15 min and washed three times with PBS for 5 min. The cells were blocked containing 2% BSA in PBS solution for 1 h at room temperature. Subsequently, the cells were incubated with primary antibody diluted in 2% BSA/PBS solution overnight at 4 °C, followed by washing the cells three times for 10 min with PBS and incubated with Alexa Fluor-conjugated secondary antibody diluted in 2% BSA/PBS for 30 min at room temperature. Using a DAPI-containing mounting medium (Vector Laboratories), the coverslips were mounted on glass slides. Confocal images were taken by laser scanning confocal microscope 510 Meta (Zeiss) and analyzed by Zeiss LSM Image Browser (ver. 4.2.0.121). […] Quantification results are shown as mean ± S.D. or S.E.M. of three independent experiments

NBR1 = target: T3, NBR1 (Homo sapiens, UniProt Q14596); experiment: Competition pulldown assay with biotinylated YOK-2204 (NBR1); format: binding; conditions: HEK293T
T3 construct: pulldown assay in HEK293T cells using biotinylated YOK-2204; endogenous in cells; host or cells: HEK293T cell extract
T3 sequence (Q14596 whole entry): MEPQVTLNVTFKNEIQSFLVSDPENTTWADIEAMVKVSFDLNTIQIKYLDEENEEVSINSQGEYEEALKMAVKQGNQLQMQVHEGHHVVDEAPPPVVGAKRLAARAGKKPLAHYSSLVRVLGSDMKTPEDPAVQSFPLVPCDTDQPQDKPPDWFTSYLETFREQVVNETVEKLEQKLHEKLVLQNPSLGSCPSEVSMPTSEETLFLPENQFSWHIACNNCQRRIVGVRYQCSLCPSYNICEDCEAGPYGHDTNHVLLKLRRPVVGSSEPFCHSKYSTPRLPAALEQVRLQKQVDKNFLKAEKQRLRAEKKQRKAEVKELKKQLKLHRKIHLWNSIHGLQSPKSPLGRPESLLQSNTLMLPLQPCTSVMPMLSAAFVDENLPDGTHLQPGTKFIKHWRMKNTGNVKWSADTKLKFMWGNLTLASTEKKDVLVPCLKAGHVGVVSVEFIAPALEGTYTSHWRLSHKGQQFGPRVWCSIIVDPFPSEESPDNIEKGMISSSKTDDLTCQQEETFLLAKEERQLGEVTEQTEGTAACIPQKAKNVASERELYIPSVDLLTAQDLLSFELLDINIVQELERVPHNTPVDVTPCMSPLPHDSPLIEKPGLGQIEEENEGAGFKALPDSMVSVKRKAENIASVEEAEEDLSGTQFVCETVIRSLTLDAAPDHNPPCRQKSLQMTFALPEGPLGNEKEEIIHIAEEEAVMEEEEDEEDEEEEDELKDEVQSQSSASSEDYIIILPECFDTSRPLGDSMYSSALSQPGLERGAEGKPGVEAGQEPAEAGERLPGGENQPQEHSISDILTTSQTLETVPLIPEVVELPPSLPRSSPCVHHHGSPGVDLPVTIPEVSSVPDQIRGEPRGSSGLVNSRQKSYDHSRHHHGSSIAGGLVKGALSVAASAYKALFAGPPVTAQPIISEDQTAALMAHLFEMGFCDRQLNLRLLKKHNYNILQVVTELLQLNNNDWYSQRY
Protocol: as §1

[3] = test system: p62 and the lysosomal marker LAMP1; experiment: ICC of LAMP1-p62 co-localization in HeLa cells; format: cell-based; conditions: 2.5 μM, 24 h
Protocol: as §2, with “experiments […]” for “experiments”
Supplementary Fig. 2. Characterization of p62-ZZ ligands (a, c, e) 3-D modeling of p62 ZZ ligands YOK-1304, YOK-2204 and YTK-105, respectively. (b, d, f) 2-D diagram for YOK-1304, YOK-2204 and YTK-105, respectively. (g,h) ICC of HeLa cells treated with the indicated compounds (2.5 μM, 24 h). Scale bar, 10 μm. (i) Quantification of h for co-localization (n=3, 50 cells). (j) ICC of HeLa cells treated with the indicated compounds (2.5 μM, 24 h). Scale bar, 10 μm. (k) Quantification of j for co-localization (n=3, 50 cells). (l) ICC of HeLa cells transiently expressing WIPI2-GFP and treated with the indicated compounds (2.5 μM, 6 h). (m) Quantification of l for co-localization (n=3, 50 cells). Scale bar, 10 µm. (n) […]

[4] = test system: p62-positive and WIPI2-positive punctate structures; experiment: ICC of WIPI2-p62 co-localization in HeLa cells; format: cell-based; conditions: HeLa, endogenous WIPI2, 2.5 μM, 24 h
Protocol: as §2
Supplementary Fig. 2. Characterization of p62-ZZ ligands (a, c, e) 3-D modeling of p62 […]
μM, 6 h). (m) Quantification of l for co-localization (n=3, 50 cells). Scale bar, 10 µm. (n) […]

[5] = WST assay viability relative to con = 100, LNcaP, duplicates
[6] = WST assay viability, AVG %, LNcaP

N#Cc1ccc(O[C@H]2CC[C@H](NC(=O)c3ccc(N4CCC(CN5CCN(c6cc7c(cc6F)C(=O)N(C6CCC(=O)NC6=O)C7=O)CC5)CC4)nn3)CC2)cc1Cl (some centres unmarked) [ARV-110]
IC50, proliferation assay (VCaP cells): low nM range

CC(C)NCC(O)COc1ccc(OCCc2ccccc2)c(OCCc2ccccc2)c1 (centres unmarked) [YOK-2204]
interaction with mutant p62^D129A (mutant p62^D129A): severely crippled
viability at 0.01 µM [1, 5]: 109%
viability at 0.1 µM [1, 5]: 105%
viability at 1 µM [1, 5]: 105%
viability at 10 µM [1, 5]: 110%
viability at 50 µM [1, 5]: 123%
viability at 100 µM [1, 5]: 128%
viability at 0.01 µM [1, 6]: 101%
viability at 0.1 µM [1, 6]: 98.5%
viability at 1 µM [1, 6]: 99.3%
viability at 10 µM [1, 6]: 104%
viability at 50 µM [1, 6]: 115%
viability at 100 µM [1, 6]: 129%
WST assay raw reading (LNCaP cells; 0.01uM): 2.286 and 1.976
WST assay viability relative to con = 100 (LNCaP cells; 0.01uM): 93.5242
WST assay raw reading (LNCaP cells; 0.1uM): 2.213 and 1.938
WST assay viability relative to con = 100 (LNCaP cells; 0.1uM): 91.6264
WST assay raw reading (LNCaP cells; 1uM): 2.21 and 1.972
WST assay viability relative to con = 100 (LNCaP cells; 1uM): 93.3245
WST assay raw reading (LNCaP cells; 10uM): 2.305 and 2.064
WST assay viability relative to con = 100 (LNCaP cells; 10uM): 97.9191
WST assay raw reading (LNCaP cells; 50uM): 2.575 and 2.249
WST assay viability relative to con = 100 (LNCaP cells; 50uM): 107.158
WST assay raw reading (LNCaP cells; 100uM): 2.662 and 2.714
WST assay viability relative to con = 100 (LNCaP cells; 100uM): 130.381
binding of p62 in pulldown (p62): bound
LC3 puncta formation, AVG of cells of 50 [2]: 44.6667
LC3 puncta formation, percentage AVG [2]: 89.3333%
p62-LC3 colocalization, AVG of cells of 50 [2]: 37
p62-LC3 colocalization, percentage AVG [2]: 74%
p62 puncta formation, AVG of cells of 50 [2]: 40.3333
p62 puncta formation, percentage AVG [2]: 80.6667%
LC3 puncta formation, cells of 50 cells counted ([2]; single experiments): 47 and 46 and 41
p62-LC3 colocalization, cells of 50 cells counted ([2]; single experiments): 43 and 37 and 31
p62 puncta formation, cells of 50 cells counted ([2]; single experiments): 43 and 37 and 41
interaction with NBR1 (NBR1): not NBR1

OCCNCCNCc1cccc(OCc2ccc(F)cc2)c1 [YT-8-8]
LAMP1-p62 colocalization, AVG of cells of 50 [3]: 33
LAMP1-p62 colocalization, percentage AVG [3]: 66%
LAMP1-p62 colocalization, cells of 50 cells counted ([3]; single experiments): 32 and 38 and 29
binding of p62 in pulldown (p62): bound
WIPI2-p62 colocalization, AVG of cells of 50 [4]: 43.3333
WIPI2-p62 colocalization, percentage AVG [4]: 86.6667%
WIPI2-p62 colocalization, cells of 50 cells counted ([4]; single experiments): 42 and 39 and 49
